Test results reported in PMC12362796, “Bilirubin Targeting WNK1 to Alleviate NLRP3‐Mediated Neuroinflammation” (Advanced Science, 2025).

Legend:
[1] = biological target: T1, point mutations of WNK1 (1–491) (Homo sapiens, UniProt Q9H4A3, K351A); experiment: MST, EGFP-tagged point mutations of WNK1 (1–491); assay type: binding; conditions: WNK1-N K351A
T1 construct: EGFP‐tagged point mutations of WNK1 (1–491) (15 min) in lysates; expressed in transfected cells; host or cells: HEK293T
Excerpt: Molecular docking identified several crucial amino acid residues within binding site 1 of the kinase domain for the binding of WNK1 and bilirubin. These residues included Thr301 (T301), Met304 (M304), Lys351 (K351), and Phe356 (F356) (Figure 3C). To investigate this further, we constructed WNK1‐N mutants by replacing these residues with alanine (A). […] This finding highlights the critical role of these residues in bilirubin binding.
(§1) In HEK293T cells, proteins tagged with green fluorescent protein (GFP) were expressed. The cells were lysed using the M‐PER Mammalian Protein Extraction Reagent (cat. no. 78505, Thermo Scientific) supplemented with protease inhibitors. Lysates were centrifuged at 12000 × g for 15 min at 4 °C, and the supernatant containing proteins was diluted 10‐fold with 1x PBST. Protein fluorescence intensity and solubility were assessed using capillary scanning at 60% LED power.
For the binding assay, the proteins were mixed with ligands and incubated for 15 min at room temperature before being loaded into Monolith NT.115 Capillaries or NT.115 Premium Capillaries (NanoTemper Technologies, MO‐K022 and MO‐K025). MST measurements were performed on a Monolith NT.115 instrument (NanoTemper Technologies) at 25 °C. Instrument parameters included no more than 80% excitation power and a medium MST power. Data analysis was conducted using the MO. Affinity Analysis software (NanoTemper Technologies).

UnaG = biological target: UnaG; parameters: method as in PMID 23768684; conditions: modified FABP family member derived from eel; cited from earlier work
hWNK1(181–507 S382A) = biological target: T2, hWNK1(181–507 S382A) (Homo sapiens, UniProt Q9H4A3, S382A); experiment: ADP-Glo kinase assay, kinase-dead WNK1 mutant control; assay type: biochemical; conditions: negative control
T2 construct: The kinase‐dead WNK1 mutant hWNK1(181–507 S382A) served as a negative control
T2 sequence (Q9H4A3 181-507 S382A): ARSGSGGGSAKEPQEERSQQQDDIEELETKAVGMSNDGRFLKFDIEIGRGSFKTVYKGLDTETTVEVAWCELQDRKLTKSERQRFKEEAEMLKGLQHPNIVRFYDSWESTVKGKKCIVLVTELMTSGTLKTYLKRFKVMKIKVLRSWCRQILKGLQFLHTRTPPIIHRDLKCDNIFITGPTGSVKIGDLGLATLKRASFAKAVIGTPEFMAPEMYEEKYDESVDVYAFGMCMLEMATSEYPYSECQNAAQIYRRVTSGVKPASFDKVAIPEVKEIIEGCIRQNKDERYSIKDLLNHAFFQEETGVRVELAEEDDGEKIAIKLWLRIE
Excerpt: Given the binding of bilirubin to the kinase domain of WNK1, we aimed to explore its effect on WNK1 with a particular focus on its kinase activity. To evaluate WNK1 kinase activity, we utilized an in vitro kinase enzyme assay system to quantify ADP production by the amino acid fragment 181–507 of human WNK1 (hWNK1) over a range of bilirubin concentrations. The kinase‐dead WNK1 mutant hWNK1(181–507 S382A) served as a negative control (Figure S10, Supporting Information).^[ [30] ^]
WNK1 kinase activity was measured using the ADP‐Glo Kinase Assay (Promega, Cat. V9101) following the manufacturer's instructions. Purified protein was incubated with bilirubin across a range of 12 serially diluted concentrations, beginning at a maximum concentration of 20 µM. After the incubation period, luminescence was recorded using a microplate reader (Synergy H1M, BioTek)

WNK1 (1–190) = biological target: T3, WNK1 (1–190) (Homo sapiens, UniProt Q9H4A3); experiment: MST, EGFP-tagged WNK1 truncation 1–190; assay type: binding; conditions: WNK1 1–190 (non-kinase segment), 15 min, HEK293T lysates
T3 construct: different lengths of WNK1 truncations (1–491, 1–190, 191–491, 491–2382); expressed in transfected cells; host or cells: HEK293T
T3 sequence (Q9H4A3 1-190): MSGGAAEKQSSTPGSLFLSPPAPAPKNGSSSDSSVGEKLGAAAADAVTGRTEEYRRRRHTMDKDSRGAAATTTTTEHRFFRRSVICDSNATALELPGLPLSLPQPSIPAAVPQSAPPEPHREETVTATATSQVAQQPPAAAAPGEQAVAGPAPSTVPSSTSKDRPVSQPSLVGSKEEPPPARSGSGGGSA
Excerpt: To further validate these findings, we constructed GFP‐tagged fusion proteins with different lengths of WNK1 truncations (1–491, 1–190, 191–491, 491–2382) based on the WNK1 domains (Figure 3E) and analyzed their binding capacity with bilirubin using MST analysis.^[ [29] ^]
All WNK1 clones were derived from the original untagged hWNK1 cDNA (NM_018979), which was modified and subcloned into the pcDNA3.1, referred to as “full‐length WNK1” throughout this study. Truncated constructs, including 1–190aa, 191–491aa, 1–491aa, and 491–2382aa fragments, were generated by PCR using the full‐length template and subsequently ligated into linearized pcDNA3.1 vectors. WNK2 was obtained from Addgene Plasmid #24569, and WNK3 was obtained from Addgene Plasmid #81723. Both were subjected to base modifications and cloned into pcDNA3.1. The WNK4 clone was derived from hWNK4 cDNA (NM_032387.5), modified, and subcloned into the pCMV3‐C‐GFPSpark vector.
as §1, with “Protein fluorescence intensity and solubility were assessed using capillary scanning at 60% LED power.” left out

T1 sequence (Q9H4A3 1-491 K351A): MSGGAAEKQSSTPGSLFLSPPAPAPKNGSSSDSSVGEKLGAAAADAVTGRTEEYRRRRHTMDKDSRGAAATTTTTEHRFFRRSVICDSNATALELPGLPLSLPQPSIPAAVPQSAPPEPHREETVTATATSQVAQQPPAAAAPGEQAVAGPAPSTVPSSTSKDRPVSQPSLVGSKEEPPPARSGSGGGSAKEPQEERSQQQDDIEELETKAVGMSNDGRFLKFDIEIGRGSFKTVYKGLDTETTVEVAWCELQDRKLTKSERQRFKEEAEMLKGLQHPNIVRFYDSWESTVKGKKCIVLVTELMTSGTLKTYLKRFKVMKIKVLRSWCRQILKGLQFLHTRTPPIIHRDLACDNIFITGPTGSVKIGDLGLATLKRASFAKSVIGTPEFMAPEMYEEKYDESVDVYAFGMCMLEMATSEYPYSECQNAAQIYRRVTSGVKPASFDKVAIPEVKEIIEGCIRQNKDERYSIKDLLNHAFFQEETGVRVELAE

- binding to K351A mutant [1]: reduced binding affinity
- effect on kinase activity of kinase-dead mutant (hWNK1(181–507 S382A)): no effect
- Kd (WNK1 (1–190)): 1830 nM
SMILES: C=CC1=C(C)/C(=C/c2[nH]c(Cc3[nH]c(/C=C4\NC(=O)C(C)=C4C=C)c(C)c3CCC(=O)O)c(CCC(=O)O)c2C)NC1=O [bilirubin, Bilirubin]
- Kd (UnaG): 0.098 nM
